Measurements published in US6982362B1, “α-tocopherol transport protein knockout animal” (priority 1999, dated 2006).

Test: Plasma α-tocopherol levels in mice fed with α-tocopherol (HPLC)
Format: in vivo, mouse
Conditions: fed α-tocopherol 82 μmol/kg from 4 weeks of age, time course FIG. 7
Experimental: Each of the homozygous α-TTP-deficient, heterozygous α-TTP-deficient and wild-type mice was fed with α-tocopherol at a concentration of 82 μmol/kg from 4 weeks of age. All mice were then assayed for their plasma α-tocopherol levels according to the method of Kim, H. S. et al. (Free Rad. Res. 28, 87–92, 1998). More specifically, 50 μl of mouse plasma collected using heparin was diluted with 950 Pl of PBS, mixed with 1 ml of 6% pyrogarol in EtOH, and then allowed to stand at 70° C. for 2 minutes. After addition of 60% KOH (0.2 ml), the mixture was saponified at 70° C. for 30 minutes, vortexed with 5 ml of n-hexane and 2.5 ml of H2O, and then centrifuged to collect the n-hexane layer (4 ml). The layer was evaporated and dissolved in […] of ethanol, followed by HPLC analysis. HPLC was performed under the following conditions: column: IRIKA RP18 (250×4 mm), mobile phase: MeOH/H2O/NaClO4 (1000/2/7, v/v/w), detection: IRIKA Amperometric E-520 detector. Tocol was used as an internal standard.

SMILES: Cc1c(C)c2c(c(C)c1O)CC[C@@](C)(CCC[C@H](C)CCC[C@H](C)CCCC(C)C)O2 [α-tocopherol]
- plasma α-tocopherol level as compared with the wild-type mice (heterozygous α-TTP-deficient mice): about one-half
- plasma α-tocopherol level (homozygous α-TTP-deficient mice): under the detection limit
